According to the SangsterLogP compilation:

Test: method code G-GLC, from Larsen, B. R., Skejo-Andreasen, H., & Pérez, A. P. (1992). Octanol-water partition coefficients of 39 polychlorinated biphenyls in an Askarel mixture. Fresenius Envir. Bull. I (Supplementum), S13-18.

Row | Compound | logP
1 | Clc1ccc(Cl)c(-c2cc(Cl)ccc2Cl)c1 | 5.81
2 | Clc1cc(Cl)c(-c2c(Cl)ccc(Cl)c2Cl)c(Cl)c1Cl | 6.76
3 | Clc1cc(Cl)c(-c2cccc(Cl)c2Cl)cc1Cl | 6.28
4 | Clc1ccc(Cl)c(-c2ccc(Cl)c(Cl)c2)c1 | 5.99
5 | Clc1ccc(-c2c(Cl)ccc(Cl)c2Cl)cc1Cl | 6.22
6 | Clc1ccc(Cl)c(-c2c(Cl)c(Cl)cc(Cl)c2Cl)c1 | 6.45
7 | Clc1ccc(Cl)c(-c2c(Cl)ccc(Cl)c2Cl)c1 | 6.08
8 | Clc1ccc(-c2ccc(Cl)c(Cl)c2Cl)c(Cl)c1Cl | 6.62
9 | Clc1ccc(-c2cccc(Cl)c2Cl)cc1 | 5.63
10 | Clc1ccc(-c2ccc(Cl)c(Cl)c2Cl)cc1 | 5.95
